Results: the NIST ThermoML archive (doi:10.1016/j.jct.2014.05.020)
Numbers after ± are expanded uncertainties.

Assay: excess molar enthalpy (molar enthalpy of mixing); xn = mol fraction of the nth substance listed
Conditions: Liquid, Flow calorimetry

C1CCCCC1 [cyclohexane] + c1ccccc1
excess molar enthalpy [kcal/mol]
Conditions | 298.2 K | 348.2 K | 423.2 K
100 kPa, x2 = 0.1191 | 0.0766 ± 0.00335 | – | –
100 kPa, x2 = 0.2332 | 0.132 ± 0.00359 | – | –
100 kPa, x2 = 0.2885 | 0.152 ± 0.00335 | – | –
100 kPa, x2 = 0.3426 | 0.167 ± 0.00311 | – | –
100 kPa, x2 = 0.3957 | 0.179 ± 0.00311 | – | –
100 kPa, x2 = 0.4478 | 0.186 ± 0.00311 | – | –
100 kPa, x2 = 0.4988 | 0.189 ± 0.00311 | – | –
100 kPa, x2 = 0.5488 | 0.188 ± 0.00311 | – | –
100 kPa, x2 = 0.5978 | 0.184 ± 0.00311 | – | –
100 kPa, x2 = 0.6459 | 0.176 ± 0.00311 | – | –
100 kPa, x2 = 0.6931 | 0.165 ± 0.00311 | – | –
100 kPa, x2 = 0.7394 | 0.15 ± 0.00335 | – | –
100 kPa, x2 = 0.7849 | 0.133 ± 0.00335 | – | –
100 kPa, x2 = 0.8295 | 0.112 ± 0.00359 | – | –
100 kPa, x2 = 0.9163 | 0.063 ± 0.00359 | – | –
5000 kPa, x2 = 0.1189 | 0.076 ± 0.00359 | 0.0637 ± 0.00311 | 0.0511 ± 0.00311
5000 kPa, x2 = 0.1765 | 0.106 ± 0.00359 | – | 0.072 ± 0.00311
5000 kPa, x2 = 0.233 | 0.132 ± 0.00335 | 0.11 ± 0.00311 | 0.0886 ± 0.00287
5000 kPa, x2 = 0.2882 | 0.152 ± 0.00335 | – | –
5000 kPa, x2 = 0.3424 | 0.167 ± 0.00311 | 0.141 ± 0.00311 | 0.113 ± 0.00287
5000 kPa, x2 = 0.3955 | 0.178 ± 0.00311 | – | –
5000 kPa, x2 = 0.4475 | 0.184 ± 0.00311 | 0.156 ± 0.00311 | 0.126 ± 0.00287
5000 kPa, x2 = 0.4985 | 0.188 ± 0.00311 | – | –
5000 kPa, x2 = 0.5485 | 0.187 ± 0.00311 | 0.159 ± 0.00311 | 0.128 ± 0.00287
5000 kPa, x2 = 0.5976 | 0.182 ± 0.00311 | – | –
5000 kPa, x2 = 0.6457 | 0.174 ± 0.00311 | 0.148 ± 0.00311 | 0.12 ± 0.00287
5000 kPa, x2 = 0.6929 | 0.166 ± 0.00311 | – | –
5000 kPa, x2 = 0.7392 | 0.151 ± 0.00335 | 0.126 ± 0.00311 | 0.103 ± 0.00311
5000 kPa, x2 = 0.7847 | 0.133 ± 0.00335 | – | –
5000 kPa, x2 = 0.8293 | 0.113 ± 0.00359 | 0.0938 ± 0.00335 | 0.0766 ± 0.00311
5000 kPa, x2 = 0.8732 | 0.0885 ± 0.00382 | – | 0.0603 ± 0.00311
5000 kPa, x2 = 0.9162 | 0.0614 ± 0.00382 | 0.0514 ± 0.00335 | 0.0425 ± 0.00335
5000 kPa, x2 = 0.9585 | – | 0.0264 ± 0.00359 | 0.0221 ± 0.00335
15000 kPa, x2 = 0.1188 | 0.0714 ± 0.00335 | 0.0601 ± 0.00311 | 0.0502 ± 0.00311
15000 kPa, x2 = 0.1763 | – | – | 0.0712 ± 0.00311
15000 kPa, x2 = 0.2327 | 0.129 ± 0.00359 | 0.109 ± 0.00311 | 0.0873 ± 0.00287
15000 kPa, x2 = 0.2879 | 0.15 ± 0.00335 | – | –
15000 kPa, x2 = 0.3421 | 0.166 ± 0.00335 | 0.14 ± 0.00311 | 0.111 ± 0.00287
15000 kPa, x2 = 0.3951 | 0.178 ± 0.00311 | – | –
15000 kPa, x2 = 0.4471 | 0.185 ± 0.00311 | 0.156 ± 0.00311 | 0.124 ± 0.00287
15000 kPa, x2 = 0.4981 | 0.188 ± 0.00311 | – | –
15000 kPa, x2 = 0.5482 | 0.188 ± 0.00311 | 0.158 ± 0.00311 | 0.125 ± 0.00287
15000 kPa, x2 = 0.5972 | 0.184 ± 0.00311 | – | –
15000 kPa, x2 = 0.6454 | 0.175 ± 0.00311 | 0.148 ± 0.00311 | 0.117 ± 0.00287
15000 kPa, x2 = 0.6926 | 0.164 ± 0.00335 | – | –
15000 kPa, x2 = 0.7389 | 0.149 ± 0.00335 | 0.127 ± 0.00311 | 0.1 ± 0.00311
15000 kPa, x2 = 0.7845 | 0.131 ± 0.00335 | – | –
15000 kPa, x2 = 0.8291 | 0.11 ± 0.00359 | 0.0941 ± 0.00335 | 0.0743 ± 0.00311
15000 kPa, x2 = 0.873 | – | – | 0.0577 ± 0.00311
15000 kPa, x2 = 0.9161 | 0.0587 ± 0.00359 | 0.0511 ± 0.00359 | 0.0403 ± 0.00335
15000 kPa, x2 = 0.9584 | – | 0.0259 ± 0.00382 | 0.0203 ± 0.00335
25000 kPa, x2 = 0.1187 | 0.072 ± 0.00335 | 0.0642 ± 0.00335 | 0.0506 ± 0.00311
25000 kPa, x2 = 0.1762 | – | 0.0901 ± 0.00335 | 0.0707 ± 0.00311
25000 kPa, x2 = 0.2325 | 0.129 ± 0.00335 | 0.112 ± 0.00311 | 0.0873 ± 0.00287
25000 kPa, x2 = 0.3418 | 0.167 ± 0.00311 | 0.143 ± 0.00311 | 0.112 ± 0.00287
25000 kPa, x2 = 0.4469 | 0.185 ± 0.00311 | 0.158 ± 0.00311 | 0.124 ± 0.00287
25000 kPa, x2 = 0.5479 | 0.187 ± 0.00311 | 0.16 ± 0.00311 | 0.125 ± 0.00287
25000 kPa, x2 = 0.6451 | 0.175 ± 0.00311 | 0.149 ± 0.00311 | 0.117 ± 0.00287
25000 kPa, x2 = 0.7388 | 0.149 ± 0.00311 | 0.127 ± 0.00311 | 0.0996 ± 0.00311
25000 kPa, x2 = 0.7843 | 0.132 ± 0.00335 | – | –
25000 kPa, x2 = 0.829 | 0.111 ± 0.00359 | 0.0933 ± 0.00311 | –
25000 kPa, x2 = 0.8729 | – | 0.0728 ± 0.00335 | –
25000 kPa, x2 = 0.916 | 0.0593 ± 0.00359 | 0.0502 ± 0.00359 | –
25000 kPa, x2 = 0.9584 | – | 0.0242 ± 0.00382 | –
